{"source": "patent US20190352297A1", "about": "“SELECTIVE AURORA A KINASE INHIBITORS” (UNIVERSITAT BERN, priority 2017, published 2019)", "key": {"AuroraB/INCENP complex": {"target": "T1, AuroraB/INCENP complex (Homo sapiens, UniProt Q96GD4)", "T1 construct": "purchased Millipore 14-835", "T1 sequence (Q96GD4 whole entry)": "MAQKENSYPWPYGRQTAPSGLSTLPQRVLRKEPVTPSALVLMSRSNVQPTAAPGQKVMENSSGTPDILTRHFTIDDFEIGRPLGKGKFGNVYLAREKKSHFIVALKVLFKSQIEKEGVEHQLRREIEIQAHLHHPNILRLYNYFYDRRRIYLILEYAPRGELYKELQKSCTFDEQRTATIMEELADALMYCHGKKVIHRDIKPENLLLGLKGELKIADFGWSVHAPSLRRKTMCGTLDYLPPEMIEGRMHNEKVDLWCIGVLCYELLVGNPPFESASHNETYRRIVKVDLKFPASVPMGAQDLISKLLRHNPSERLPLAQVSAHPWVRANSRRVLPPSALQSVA", "T1 sequence (Q9NQS7 whole entry partner)": "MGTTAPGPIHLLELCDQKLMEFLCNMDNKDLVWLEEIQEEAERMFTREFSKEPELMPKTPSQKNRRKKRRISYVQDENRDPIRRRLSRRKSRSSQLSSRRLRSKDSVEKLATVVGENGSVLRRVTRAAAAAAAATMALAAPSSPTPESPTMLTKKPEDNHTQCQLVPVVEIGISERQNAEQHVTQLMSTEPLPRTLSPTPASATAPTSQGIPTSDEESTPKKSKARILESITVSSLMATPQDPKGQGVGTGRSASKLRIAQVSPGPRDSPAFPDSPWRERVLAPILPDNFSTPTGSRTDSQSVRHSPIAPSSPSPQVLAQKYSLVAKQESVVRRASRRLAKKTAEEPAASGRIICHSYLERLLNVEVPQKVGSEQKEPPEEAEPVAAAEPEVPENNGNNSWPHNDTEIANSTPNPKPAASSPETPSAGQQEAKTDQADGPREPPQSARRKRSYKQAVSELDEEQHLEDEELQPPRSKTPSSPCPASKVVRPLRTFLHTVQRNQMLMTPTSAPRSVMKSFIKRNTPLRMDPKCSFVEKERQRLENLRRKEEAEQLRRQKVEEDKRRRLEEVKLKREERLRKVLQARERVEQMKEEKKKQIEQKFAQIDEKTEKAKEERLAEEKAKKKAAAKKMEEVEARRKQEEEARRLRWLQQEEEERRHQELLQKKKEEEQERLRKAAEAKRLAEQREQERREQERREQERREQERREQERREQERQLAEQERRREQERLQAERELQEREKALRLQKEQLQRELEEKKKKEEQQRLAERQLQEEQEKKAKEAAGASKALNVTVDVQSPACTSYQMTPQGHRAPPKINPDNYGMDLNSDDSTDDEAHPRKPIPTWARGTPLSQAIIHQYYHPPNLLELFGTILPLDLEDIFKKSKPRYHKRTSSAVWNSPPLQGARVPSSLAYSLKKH", "assay": "HTRF kinase assay, AuroraB/INCENP complex", "format": "biochemical", "procedure": "Aurora A and AuroraB kinases were assayed using the homogeneous time-resolved fluorescence (HTRF) KinEASE STK2 kit from Cisbio (France). […] For both enzymes, the reactions were run for 30 min at room temperature and stopped by the addition of 10 μL of detection buffer containing EDTA, antiphospho-Ser/Thr antibody labelled with europium cryptate, and XL-665 conjugated streptavidin (62.5 nM final concentration). After incubation at room temperature for one hour, fluorescence was measured at 620 nm (europium cryptate) and 665 nm (XL-665) after excitation at 317 nm (lag time 60 μs, integration time 500 μs) using a Tecan Infinite M1000 PRO microplate reader (Greiner 384-well plates, white, non-binding, small volume). The ratio of fluorescence (665 nm/620 nm) was calculated for each well and the results were expressed as follows: specific signal=ratio (sample)−ratio (negative control), where ratio=665 nm/620 nm×10^4. Compounds were measured in threefold serial dilutions at 10 different concentrations, covering the concentration range from no to full inhibition. Each concentration was measured in duplicates, and two independent determinations were made for each IC50 value. IC50 curves were generated using a four-parameter logistic model (XLfit from IDBS)."}, "456 kinases": {"tested_on": "456 kinases", "assay": "Kinome scan of 456 kinases (scanMAX)", "format": "binding", "details": "screened at 1 μM", "procedure": "The kinome profiling of compound 9 was conducted by DiscoveRx. In total, 456 kinases were assayed (scanMAX). For most assays, kinase-tagged T7 phage strains were grown in parallel in 24-well blocks in an E. coli host derived from the BL21 strain. E. coli were grown to log-phase and infected with T7 phage from a frozen stock (multiplicity of infection=0.4) and incubated with shaking at 32° C. until lysis (90-150 minutes). The lysates were centrifuged (6000 g) and filtered (0.2 μm) to remove cell debris. The remaining kinases were produced in HEK-293 cells and subsequently tagged with DNA for qPCR detection. […] The liganded beads were blocked with excess biotin and washed with blocking buffer (SeaBlock (Pierce), 1% BSA, 0.05% Tween 20, 1 mM DTT) to remove unbound ligand and to reduce non-specific phage binding. […] Test compounds were prepared as 40× stocks in 100% DMSO and directly diluted into the assay. All reactions were performed in polypropylene 384-well plates in a final volume of 0.04 ml. […] The kinase concentration in the eluates was measured by qPCR. Compound 114 was screened at 1 μM, and results for primary screen binding interactions were reported as % of control (PoC). PoC=(test compound signal−positive control signal)/(DMSO signal−positive control signal). […] KD values were determined with a standard dose-response curve using the Hill equation."}, "HeLa cells": {"tested_on": "HeLa cells", "assay": "Mitotic index of HeLa cells", "format": "cell-based, human", "procedure": "HeLa Kyoto cells were cultured in high-glucose DMEM with GlutaMAX (Life Technologies) media supplemented with 10% fetal calf serum (FCS) in a humidified 5% CO2 incubator at 37° C. For plasmid transfections, cells were seeded at 80-90% confluence. 4 μg of plasmid DNA in 100 μl OptiMEM and 4 μl of Lipofectamine 2000 (Life Technologies) in 100 μl OptiMEM were incubated in parallel for 5 minutes, mixed for 20 minutes and added to each well. All Aurora A clones were constructed using full-length Aurora A as a template with appropriate PCR primer pairs. […] For determining the mitotic index and the chromosome misalignment phenotype, cells were incubated with various concentrations of compounds for 20 h before analysis. […] For rescue experiments, HeLa Kyoto cells were first transfected with GFP-Aurora A, GFP-Aurora AR137A or GFP-Aurora AW277A for 20 h, followed by incubation with 9 for another 20 h before cells were fixed with cold methanol and stained."}, "HeLa Kyoto cells": {"tested_on": "HeLa Kyoto cells", "assay": "DNA content analysis by flow cytometry", "format": "cell-based, human", "details": "48 h, 9 even at 10 μM", "procedure": "HeLa Kyoto cells were cultured in high-glucose DMEM with GlutaMAX (Life Technologies) media supplemented with 10% fetal calf serum (FCS) in a humidified 5% CO2 incubator at 37° C. For plasmid transfections, cells were seeded at 80-90% confluence. 4 μg of plasmid DNA in 100 μl OptiMEM and 4 μl of Lipofectamine 2000 (Life Technologies) in 100 μl OptiMEM were incubated in parallel for 5 minutes, mixed for 20 minutes and added to each well. All Aurora A clones were constructed using full-length Aurora A as a template with appropriate PCR primer pairs. […] GFP-Aurora AR137A and GFP-Aurora AW277A were engineered using a site directed mutagenesis kit (Agilent Technologies, no. 210515) with appropriate primers. For determining the mitotic index and the chromosome misalignment phenotype, cells were incubated with various concentrations of compounds for 20 h before analysis. Cells were likewise treated with 0.25 μM MLN8237 (Selleckchem, no. S1133) or 5 μM ZM447439 (Selleckchem, no. S1103). For flow cytometry analysis, 50 nM MLN8037 and 2.5 μM ZM447439 were used. […] To assess the impact of compound 9 on cell cycle progression, DNA content was analyzed after propidium iodide staining using FACS (BD Accuri C6 flow cytometer)."}, "[1]": {"tested_on": "Aurora A localization, HeLa Kyoto cells", "assay": "Aurora A localization at the mitotic spindle (immunofluorescence)", "format": "cell-based, human", "details": "overnight", "procedure": "HeLa Kyoto cells were cultured in high-glucose DMEM with GlutaMAX (Life Technologies) media supplemented with 10% fetal calf serum (FCS) in a humidified 5% CO2 incubator at 37° C. For plasmid transfections, cells were seeded at 80-90% confluence. 4 μg of plasmid DNA in 100 μl OptiMEM and 4 μl of Lipofectamine 2000 (Life Technologies) in 100 μl OptiMEM were incubated in parallel for 5 minutes, mixed for 20 minutes and added to each well. All Aurora A clones were constructed using full-length Aurora A as a template with appropriate PCR primer pairs. […] GFP-Aurora AR137A and GFP-Aurora AW277A were engineered using a site directed mutagenesis kit (Agilent Technologies, no. 210515) with appropriate primers. For determining the mitotic index and the chromosome misalignment phenotype, cells were incubated with various concentrations of compounds for 20 h before analysis. Cells were likewise treated with 0.25 μM MLN8237 (Selleckchem, no. S1133) or 5 μM ZM447439 (Selleckchem, no. S1103). For flow cytometry analysis, 50 nM […] and 2.5 μM ZM447439 were used. For rescue experiments, HeLa Kyoto cells were first transfected with GFP-Aurora A, GFP-Aurora AR137A or GFP-Aurora AW277A for 20 h, followed by incubation with 9 for another 20 h before cells were fixed with cold methanol and stained. To assess the impact of compound 9 on cell cycle progression, DNA content was analyzed after propidium iodide staining using FACS (BD Accuri C6 flow cytometer).\nSecondary antibodies were anti-mouse conjugated to Alexa488 or Alexa568, as well as anti-rabbit conjugated to Alexa488 or Alexa568, all used at 1:500 (Invitrogen). Confocal images were acquired on a Zeiss LSM 710 confocal microscope equipped with a Axiocam MRm (B/VVW) CCD camera using a 63×NA 1.0 oil objective and processed in ImageJ and Adobe Photoshop, maintaining relative image intensities within a series."}}, "note": "“Also recorded” adds a separate entry of the source."}
{"compound": "CCc1ccc(N=C2SC(=Cc3ccnc(Nc4ccc(C(=O)O)cn4)c3)C(=O)N2C)cc1", "note": "[Compound 9]", "values": [{"measurement": "IC50", "setting": "AuroraB/INCENP complex; 20 μM ATP, HTRF, read-out: IC50 Aurora B in complex with INCENP (biochemical)", "value": "149 ± 3", "unit": "nM"}, {"measurement": "weaker inhibition of Aurora B/INCENP compared to KD measured with free Aurora B", "setting": "AuroraB/INCENP complex; IC50 Aurora B/INCENP versus KD free Aurora B", "value": 15, "unit": "fold"}, {"measurement": "kinome selectivity", "setting": "456 kinases", "value": "remarkably selective"}, {"measurement": "mitotic index", "setting": "HeLa cells; 4 μM", "value": "~15", "unit": "%"}, {"measurement": "mitotic index", "setting": "HeLa cells; 10 μM", "value": "~25", "unit": "%"}, {"measurement": "mitotic index", "setting": "HeLa cells; 25 μM", "value": "~40", "unit": "%"}, {"measurement": "accumulation of cells with 8N and 16N DNA contents", "setting": "HeLa Kyoto cells", "value": "did not occur"}, {"measurement": "Aurora A localization at spindle microtubules and centrosomes", "setting": "[1]", "value": "notably displaced from the spindle microtubules; also recorded: impairs Aurora A localization at the spindle microtubules"}]}
